SMILES strings stand for the structures.

We go through one compound from patent publication US10947239B2, “[1,2,4]triazolo[1,5-a]pyrimidin-7-yl compound” (Janssen Pharmaceutica NV, priority 2015, dated 2021).

The target in data set [1] is Rat recombinant PDE10A (rPDE10A2) (Rattus norvegicus (Rat), UniProt Q9QYJ6). Put plainly: In vitro assay PDE10A (SPA, 3H-cAMP). It is filed as biochemical. The settings on record: −log IC50 expressed in mol/L. How it is done: Rat recombinant PDE10A (rPDE10A2) was expressed in Sf9) cells using a recombinant rPDE10A baculovirus construct. Cells were harvested after 48 h of infection and the rPDE10A protein was purified by metal chelate chromatography on Ni-sepharose 6FF. Tested compounds were dissolved and diluted in 100% DMSO to a concentration 100 fold of the final concentration in the assay. Compound dilutions (0.4 μl) were added in 384 well plates to 20 μl of incubation buffer (50 mM Tris pH 7.8, 8.3 mM MgCl2, 1.7 mM EGTA). 10 μl of rPDE10A enzyme in incubation buffer was added and the reaction was started by addition of 10 μl substrate to a final concentration of 60 nM cAMP and 0.008 μCi ^3H-cAMP. The reaction was incubated for 60 minutes at room temperature. After incubation, the reaction was stopped with 20 μl of stop solution consisting of 17.8 mg/ml PDE SPA (scintillation proximity assay) beads. After sedimentation of the beads during 30 minutes the radioactivity was measured in a Perkin Elmer Topcount scintillation counter and results were expressed as cpm. For blanc values the enzyme was omitted from the reaction and replaced by incubation buffer. Control values were obtained by addition of a final concentration of 1% DMSO instead of compound. […]

For data set [2], the target named is Human recombinant PDE3A (hPDE3A) (Homo sapiens, UniProt Q14432). Put plainly: In vitro assay PDE3A (SPA, 3H-cAMP). The note with it: −log IC50 expressed in mol/L; method describes hPDE3A. It counts as biochemical. How it is done:
Human recombinant PDE3A (hPDE3A) was supplied as a partially purified insect cell lysate by Scottish Biomedical, it was cloned from human brain and expressed in Sf9 cells. Tested compounds were dissolved and diluted in 100% DMSO to a concentration 100 fold of the final concentration in the assay. Compound dilutions (0.4 μl) were added in 384 well plates to 20 μl of incubation buffer (50 mM Tris pH 7.8, 8.3 mM MgCl2, 1.7 mM EGTA). 10 μl of hPDE3A enzyme in incubation buffer was added and the reaction was started by addition of 10 μl substrate to a final concentration of 0.4 μM cAMP and 2.4 μCi/ml [^3H]-cAMP. The reaction was incubated for 60 min at room temperature. After incubation, the reaction was stopped with 20 μl of stop solution consisting of 17.8 mg/ml PDE SPA (scintillation proximity assay) beads supplemented with 200 mM ZnCl2. After sedimentation of the beads during 30 min the radioactivity was measured in a Perkin Elmer Topcount scintillation counter and results were expressed as cpm. For blanc values the enzyme was omitted from the reaction and replaced by incubation buffer. Control values were obtained by addition of a final concentration of 1% DMSO instead of compound. […]

Data set [3] deals with Marshall Beagle dogs. Put plainly: Single dose PK/PD PDE2i dog study. It counts as in vivo. An excerpt:
For these studies male and female Marshall Beagle dogs (1-6 y) were used: 2 males and 2 females per treatment group. Cerebrospinal fluid (CSF) was sampled from the lateral ventricle via a needle guide cannula in instrumented conscious animals.
Baseline CSF and blood samples were taken 2 to 5 days before dosing. The dogs are fasted overnight and the next morning dosed on an empty stomach (orally by gavage). At predetermined time points after dosing blood and/or CSF was collected for the measurement of compound levels and cGMP. Analysis of cGMP was done by LCMS/MS: 25 μl CSF was diluted with 125 μl artificial CSF (STIL (20 ng/ml)), centrifugated and 25 μl was injected. The systems used were: a Shimadzu SIL-30 UPLC-system (Hypercarb (50 mm×1 mm (3 μm)) column, basic (10 mM ammonium carbonate) aqueous-acetonitrile gradient (5% to 98% in 5.5 minutes) at a flow-rate of 250 μl/min) and an API Sciex 5500 system equiped with an ESI source (selective MRM transition (m/z 346.1→152.1 (75 msec dwelltime)). The results of this study are summarized in FIG. 7. After a single dose of compound 1 the following observations were made: slight to moderate tremors in 3/8 animals at 0.5 mg/kg; sedation and/or tremors in 6 out of 7 animals at 1 mg/kg (one animal was not dosed due to limited stock of the compound). […] Limited individual data in the vehicle group of PDE2 H-2 (n=2 at 1, 4 and 8 h) due to analytical errors.

Data set [4] deals with dentate gyrus of anesthetized adult Sprague Dawley. In words: LTP / synaptic plasticity in dentate gyrus of anesthetized rats. It counts as in vivo, rat.
Data set [5] addresses Human recombinant PDE2A (hPDE2A) (Homo sapiens (Human), UniProt O00408). Put plainly: In vitro assay PDE2A (SPA, 3H-cGMP). It is filed as biochemical. How it is done:
Human recombinant PDE2A (hPDE2A) was expressed in Sf9 cells using a recombinant […] baculovirus construct. […] Tested compounds were dissolved and diluted in 100% DMSO to a concentration 100 fold of the final concentration in the assay. Compound dilutions (0.4 μl) were added in 384 well plates to 20 μl of incubation buffer (50 mM Tris pH 7.8, 8.3 mM MgCl2, 1.7 mM EGTA). […] of hPDE2A enzyme in incubation buffer was added and the reaction was started by addition of 10 μl substrate to a final concentration of 10 μM cGMP and 0.01 μCi ^3H-cGMP. The reaction was incubated for 45 minutes at room temperature. […] After sedimentation of the beads during 30 minutes the radioactivity was measured in a Perkin Elmer Topcount scintillation counter and results were expressed as cpm. For blanc values the enzyme was omitted from the reaction and replaced by incubation buffer. Control values were obtained by addition of a final concentration of 1% DMSO instead of compound.

Setting [6] is: 40 mg/kg SC, 90-120 min post-tetanization, relative to baseline 100%.

Chain of Human recombinant PDE2A (hPDE2A) (O00408 whole entry): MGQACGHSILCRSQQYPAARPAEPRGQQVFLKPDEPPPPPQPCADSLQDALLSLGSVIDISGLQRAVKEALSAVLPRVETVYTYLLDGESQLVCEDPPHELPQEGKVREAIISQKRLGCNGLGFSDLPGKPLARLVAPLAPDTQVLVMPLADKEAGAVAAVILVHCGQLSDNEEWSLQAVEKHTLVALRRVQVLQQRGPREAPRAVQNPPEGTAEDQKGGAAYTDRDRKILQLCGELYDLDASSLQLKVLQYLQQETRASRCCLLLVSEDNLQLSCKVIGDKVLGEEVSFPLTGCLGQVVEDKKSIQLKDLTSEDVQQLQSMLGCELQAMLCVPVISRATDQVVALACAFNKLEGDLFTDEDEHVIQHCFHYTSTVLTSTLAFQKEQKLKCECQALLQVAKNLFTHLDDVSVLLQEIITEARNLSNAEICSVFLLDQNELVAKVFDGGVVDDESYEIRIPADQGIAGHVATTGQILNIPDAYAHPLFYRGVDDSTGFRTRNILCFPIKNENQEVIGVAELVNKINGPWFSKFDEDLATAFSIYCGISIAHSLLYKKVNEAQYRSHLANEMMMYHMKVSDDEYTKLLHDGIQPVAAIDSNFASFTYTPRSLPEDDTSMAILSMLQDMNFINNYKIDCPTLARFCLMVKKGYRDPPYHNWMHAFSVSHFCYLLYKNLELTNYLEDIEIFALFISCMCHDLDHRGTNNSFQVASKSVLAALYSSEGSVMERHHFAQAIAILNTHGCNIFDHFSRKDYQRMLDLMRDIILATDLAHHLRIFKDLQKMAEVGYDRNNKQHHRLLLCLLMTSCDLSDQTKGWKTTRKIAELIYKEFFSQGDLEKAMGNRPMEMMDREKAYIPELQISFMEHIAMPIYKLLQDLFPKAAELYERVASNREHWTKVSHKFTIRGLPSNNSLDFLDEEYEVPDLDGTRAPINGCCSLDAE
Chain of Rat recombinant PDE10A (rPDE10A2) (Q9QYJ6 whole entry): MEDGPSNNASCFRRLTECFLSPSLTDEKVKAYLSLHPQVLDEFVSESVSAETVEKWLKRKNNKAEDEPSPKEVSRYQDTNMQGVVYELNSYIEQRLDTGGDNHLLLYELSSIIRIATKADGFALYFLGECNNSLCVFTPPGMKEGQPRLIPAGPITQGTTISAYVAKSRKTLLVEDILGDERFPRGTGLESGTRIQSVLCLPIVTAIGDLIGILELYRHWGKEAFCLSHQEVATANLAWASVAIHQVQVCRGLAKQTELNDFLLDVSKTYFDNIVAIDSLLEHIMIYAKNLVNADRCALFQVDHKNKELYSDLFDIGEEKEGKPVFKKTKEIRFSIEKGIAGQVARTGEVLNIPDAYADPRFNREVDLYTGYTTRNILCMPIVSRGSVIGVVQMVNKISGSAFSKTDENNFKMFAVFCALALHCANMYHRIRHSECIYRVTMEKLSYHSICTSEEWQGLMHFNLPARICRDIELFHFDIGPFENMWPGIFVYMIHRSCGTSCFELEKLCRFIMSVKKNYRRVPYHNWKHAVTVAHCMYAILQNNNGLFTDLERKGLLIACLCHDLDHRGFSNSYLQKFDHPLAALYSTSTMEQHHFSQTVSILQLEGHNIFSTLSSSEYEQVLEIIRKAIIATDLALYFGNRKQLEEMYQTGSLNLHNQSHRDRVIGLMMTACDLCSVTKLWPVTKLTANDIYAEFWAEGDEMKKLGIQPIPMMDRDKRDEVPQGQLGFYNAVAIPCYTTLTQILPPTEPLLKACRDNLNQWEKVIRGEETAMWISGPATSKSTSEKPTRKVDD
Chain of Human recombinant PDE3A (hPDE3A) (Q14432 whole entry, looked up): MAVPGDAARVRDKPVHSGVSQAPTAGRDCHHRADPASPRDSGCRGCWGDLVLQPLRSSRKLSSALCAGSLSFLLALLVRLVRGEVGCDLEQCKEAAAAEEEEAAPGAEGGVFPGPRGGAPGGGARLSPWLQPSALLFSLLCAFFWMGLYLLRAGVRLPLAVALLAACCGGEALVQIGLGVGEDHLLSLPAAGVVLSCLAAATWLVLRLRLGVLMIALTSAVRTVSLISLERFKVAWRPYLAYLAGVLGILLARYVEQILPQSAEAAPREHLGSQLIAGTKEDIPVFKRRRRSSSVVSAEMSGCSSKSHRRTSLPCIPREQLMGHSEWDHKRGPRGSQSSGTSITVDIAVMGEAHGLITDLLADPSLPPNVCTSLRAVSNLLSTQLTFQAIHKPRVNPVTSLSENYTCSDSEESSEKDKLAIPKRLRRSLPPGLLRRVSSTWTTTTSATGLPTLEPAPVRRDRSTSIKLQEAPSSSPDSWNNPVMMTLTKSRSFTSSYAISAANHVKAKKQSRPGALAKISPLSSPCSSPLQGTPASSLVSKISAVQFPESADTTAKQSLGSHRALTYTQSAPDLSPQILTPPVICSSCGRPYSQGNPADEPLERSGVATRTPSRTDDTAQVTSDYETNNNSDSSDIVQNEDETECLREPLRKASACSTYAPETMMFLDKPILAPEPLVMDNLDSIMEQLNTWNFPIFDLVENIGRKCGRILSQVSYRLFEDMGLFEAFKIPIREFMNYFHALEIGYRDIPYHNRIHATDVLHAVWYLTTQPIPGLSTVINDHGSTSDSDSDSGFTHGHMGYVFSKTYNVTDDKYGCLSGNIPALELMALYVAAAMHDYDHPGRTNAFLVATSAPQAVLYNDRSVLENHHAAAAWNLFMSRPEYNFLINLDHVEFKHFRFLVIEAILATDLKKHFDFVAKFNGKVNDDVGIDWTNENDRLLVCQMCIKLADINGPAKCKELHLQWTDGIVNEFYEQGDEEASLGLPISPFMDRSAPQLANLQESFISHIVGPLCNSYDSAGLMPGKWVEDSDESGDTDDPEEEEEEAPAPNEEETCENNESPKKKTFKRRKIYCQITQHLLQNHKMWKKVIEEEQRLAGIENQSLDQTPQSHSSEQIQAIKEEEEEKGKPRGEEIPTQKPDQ

With `Cc1cc(C(=O)N2CC[C@@H](C)[C@H](c3cc(C(F)F)nc4ncnn34)C2)cc(C)n1` [Compound 1], in data set [1], the “pIC50 PDE10A2” value was 7.06. Moreover, the “pIC50 PDE3B” value in data set [2] was determined as 5.21. Moreover, in data set [3] (single oral dose), the “Plasma pharmacokinetics dose linearity” value is listed as “non-dose linearity”. For the same compound, the “slight to moderate tremors” value in data set [3] (single oral dose 0.5 mg/kg) is 3/8. The sedation and/or tremors in data set [3] (single oral dose 1 mg/kg) is reported as 6 out of 7. Besides, in data set [3] (single oral dose, CSF from lateral ventricle), the “cGMP in the CSF” value is on record as “dose related increase”. In data set [4] (40 mg/kg SC, 0-30 min after tetanization, relative to baseline 100%), this compound displayed a PSA slopes of 164±13%. Moreover, in data set [4] (setting [6]), the PSA amplitude is listed as 179±20% and the fEPSP slope amounted to 137±24%. Moreover, the “duration of enhanced synaptic potentiation” value in data set [4] (40 mg/kg SC, LTP induction paradigm) is over 2 h. Besides, the Basal synaptic transmission result in data set [4] (baseline pre-tetanus, versus vehicle-treated control) was “not affected”. Further, in data set [4] (overall conclusion), the LTP in vivo result is listed as “facilitates LTP in vivo”. Moreover, the IC50 in data set [5] (hPDE2A, 10 μM cGMP) came out at 0.95 nM. Moreover, the “pIC50 (PDE2A)” value in data set [5] (−log IC50 expressed in mol/L) worked out at 9.07.

What is called IC50 is the concentration that inhibits the measured activity by half.
